According to PubChem BioAssay (NCI):
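Five compound concentrations were applied to cells in 96-well plates for 48 hours; endpoints were derived by simple linear interpolation of the resulting dose-response curve. Definition used: TGI = concentration required for complete inhibition of growth.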

Legend:
Assay in all cases: NCI-60 cell line screen, 48 h
[1] = test system: SF-295 CNS
[2] = test system: ACHN renal
[3] = test system: UACC-62 melanoma
[4] = test system: 786-0 renal
[5] = test system: A498 renal
[6] = test system: SK-MEL-28 melanoma
[7] = test system: HT29 colon
[8] = test system: K-562 leukemia
[9] = test system: SNB-19 CNS
[10] = test system: COLO 205 colon
[11] = test system: HOP-62 NSCLC
[12] = test system: OVCAR-4 ovarian
[13] = test system: HS 578T breast
[14] = test system: TK-10 renal
[15] = test system: OVCAR-5 ovarian
[16] = test system: M14 melanoma
[17] = test system: MALME-3M melanoma
[18] = test system: OVCAR-8 ovarian
[19] = test system: SK-MEL-5 melanoma
[20] = test system: DU-145 prostate
[21] = test system: UACC-257 melanoma
[22] = test system: A549 NSCLC
[23] = test system: MDA-N
[24] = test system: HCT-15 colon
[25] = test system: OVCAR-3 ovarian
[26] = test system: CCRF-CEM leukemia
[27] = test system: CAKI-1 renal
[28] = test system: HCT-116 colon
[29] = test system: SN12C renal
[30] = test system: PC-3 prostate
[31] = test system: NCI-H522 lung
[32] = test system: SK-MEL-2 melanoma
[33] = test system: MDA-MB-231 breast
[34] = test system: MOLT-4 leukemia
[35] = test system: SW-620 colon
[36] = test system: NCI-H23 lung
[37] = test system: BT-549 breast
[38] = test system: SF-268 CNS
[39] = test system: U251 CNS
[40] = test system: EKVX NSCLC
[41] = test system: RPMI-8226 leukemia
[42] = test system: HL-60(TB) leukemia
[43] = test system: MDA-MB-435
[44] = test system: UO-31 renal
[45] = test system: NCI-H226 lung
[46] = test system: IGROV1 ovarian
[47] = test system: NCI-H460 lung
[48] = test system: NCI/ADR-RES ovarian
[49] = test system: KM12 colon
[50] = test system: SK-OV-3 ovarian
[51] = test system: HOP-92 NSCLC
[52] = test system: RXF 393 renal
[53] = test system: SR leukemia
[54] = test system: HCC-2998 colon
[55] = test system: SNB-75 CNS
[56] = test system: MCF7 breast
[57] = test system: LOX IMVI melanoma
[58] = test system: SF-539 CNS

In the case of CC1CC(NN)=Nc2ccccc2N1 (centres undefined), the TGI [1] is reported as > 100 µM, the TGI [2] is reported as > 100 µM and the TGI [3] is reported as > 100 µM. The TGI [4] was > 100 µM, the TGI [5] was > 100 µM and the TGI [6] was > 100 µM. The TGI [7] was > 100 µM, the TGI [8] was > 100 µM and the TGI [9] was > 100 µM. For the same molecule, the TGI [10] was > 100 µM, the TGI [11] was > 100 µM and the TGI [12] was > 100 µM. For the same molecule, the TGI [13] was > 100 µM, the TGI [14] was > 100 µM and the TGI [15] was > 100 µM. The TGI [16] was > 100 µM, the TGI [17] was > 100 µM and the TGI [18] was > 100 µM. For the same molecule, the TGI [19] was > 100 µM, the TGI [20] was > 100 µM and the TGI [21] was > 100 µM. The TGI [22] was > 100 µM, the TGI [23] was > 100 µM and the TGI [24] was > 100 µM. The TGI [25] was > 100 µM, the TGI [26] was > 100 µM and the TGI [27] was > 100 µM. For the same molecule, the TGI [28] was > 100 µM, the TGI [29] was > 100 µM and the TGI [30] was > 100 µM. For the same molecule, the TGI [31] was > 100 µM, the TGI [32] was > 100 µM and the TGI [33] was > 100 µM. For the same molecule, the TGI [34] was > 100 µM, the TGI [35] was > 100 µM and the TGI [36] was > 100 µM. For the same molecule, the TGI [37] was > 100 µM, the TGI [38] was > 100 µM and the TGI [39] was > 100 µM. The TGI [40] was > 100 µM, the TGI [41] was > 100 µM and the TGI [42] was > 100 µM. The TGI [43] was > 100 µM, the TGI [44] was > 100 µM and the TGI [45] was > 100 µM. For the same molecule, the TGI [46] was > 100 µM, the TGI [47] was > 100 µM and the TGI [48] was > 100 µM. For the same molecule, the TGI [49] was > 100 µM and the TGI [50] was > 100 µM.
With NC(=O)C(N)CC12CC3CC(CC(C3)C1)C2 (centres undefined) the TGI [1] was 54.9 µM, the TGI [51] was 30.4 µM and the TGI [2] was > 100 µM. For the same molecule, the TGI [3] was 28.3 µM, the TGI [4] was 40.7 µM and the TGI [6] was 55.4 µM. For the same molecule, the TGI [7] was 72.6 µM, the TGI [8] was > 100 µM and the TGI [9] was 54.6 µM. For the same molecule, the TGI [52] was 32.5 µM, the TGI [12] was 64.7 µM and the TGI [13] was 42.6 µM. The TGI [14] was 85.3 µM, the TGI [15] was 42.4 µM and the TGI [16] was 37.4 µM. It also gave a TGI [18] of 65.4 µM, a TGI [19] of 28.5 µM and a TGI [20] of 33.7 µM. The TGI [21] was 76.7 µM, the TGI [53] was 43.5 µM and the TGI [22] was > 100 µM. For the same molecule, the TGI [54] was 49.3 µM, the TGI [23] was 28.7 µM and the TGI [24] was > 100 µM. For the same molecule, the TGI [26] was 63.7 µM, the TGI [27] was > 100 µM and the TGI [28] was 30.7 µM. For the same molecule, the TGI [29] was 41.2 µM, the TGI [55] was > 100 µM and the TGI [30] was 51.9 µM. For the same molecule, the TGI [31] was 44.4 µM, the TGI [32] was 55 µM and the TGI [56] was 44.9 µM. The TGI [33] was 41.7 µM, the TGI [34] was 58.1 µM and the TGI [35] was > 100 µM. For the same molecule, the TGI [36] was 51.7 µM, the TGI [57] was 29.9 µM and the TGI [38] was 92.5 µM. For the same molecule, the TGI [39] was 34.7 µM, the TGI [40] was 97.5 µM and the TGI [41] was 47.3 µM. For the same molecule, the TGI [43] was 44 µM, the TGI [44] was 44.2 µM and the TGI [47] was > 100 µM. The TGI [48] was 91.7 µM, the TGI [49] was 47.8 µM and the TGI [50] was > 100 µM.
COC(=O)C1(C(=O)OC)CC(=O)c2c(OC(=O)c3cccc(OC)c3C#N)ccc(OC(=O)c3cccc(OC)c3C#N)c2C1 was tested, and the TGI [1] was > 100 µM, the TGI [51] was > 100 µM and the TGI [2] was > 100 µM. For the same molecule, the TGI [3] was > 100 µM, the TGI [4] was > 100 µM and the TGI [5] was > 100 µM. For the same molecule, the TGI [6] was > 100 µM, the TGI [7] was > 100 µM and the TGI [8] was > 100 µM. For the same molecule, the TGI [9] was > 100 µM, the TGI [52] was > 100 µM and the TGI [10] was > 100 µM. For the same molecule, the TGI [11] was > 100 µM, the TGI [12] was > 100 µM and the TGI [13] was > 100 µM. For the same molecule, the TGI [14] was > 100 µM, the TGI [15] was > 100 µM and the TGI [16] was > 100 µM. For the same molecule, the TGI [17] was > 100 µM, the TGI [18] was > 100 µM and the TGI [19] was > 100 µM. The TGI [20] was > 100 µM, the TGI [21] was > 100 µM and the TGI [53] was > 100 µM. For the same molecule, the TGI [22] was > 100 µM, the TGI [54] was > 100 µM and the TGI [23] was > 100 µM. For the same molecule, the TGI [24] was > 100 µM, the TGI [25] was > 100 µM and the TGI [26] was > 100 µM. The TGI [27] was > 100 µM, the TGI [28] was > 100 µM and the TGI [58] was > 100 µM. The TGI [29] was > 100 µM, the TGI [55] was > 100 µM and the TGI [30] was > 100 µM. The TGI [31] was > 100 µM, the TGI [56] was > 100 µM and the TGI [33] was > 100 µM. The TGI [34] was > 100 µM, the TGI [35] was > 100 µM and the TGI [36] was > 100 µM. The TGI [57] was > 100 µM, the TGI [38] was > 100 µM and the TGI [39] was > 100 µM. The TGI [40] was > 100 µM, the TGI [41] was > 100 µM and the TGI [42] was > 100 µM. The TGI [43] was > 100 µM, the TGI [44] was > 100 µM and the TGI [45] was > 100 µM. For the same molecule, the TGI [46] was > 100 µM, the TGI [47] was > 100 µM and the TGI [48] was > 100 µM. The TGI [49] was > 100 µM and the TGI [50] was > 100 µM.
